The values below come from patent US20240012010A1, “METHODS OF MONITORING ALPHA-1 ANTITRYPSIN (AAT) DEFICIENCY BY MEASURING POLYMERISED AAT” (Vertex Pharmaceuticals Incorporated, priority 2020, published 2024).

The target of this experiment is T1, AAT polymer (Z variant of the human allele of AAT) (Homo sapiens, UniProt P01009, E366K/V237A).
T1 construct: At study termination, plasma was collected via cardiac puncture; from tissue; host or cells: plasma of transgenic PiZ mice (C57BL/6 background) carrying the human SERPINA1 Z gene
Put plainly: Pharmacodynamic effect of Compound 2 treatment on polymer levels in a PiZ mouse model (polymer sandwich ELISA of plasma). The format is in vivo. The following applies: male PiZ hemizygous mice. The protocol:
Eleven week-old male PiZ mice, hemizygous for the Z variant of the human allele of AAT, were orally administered a suspension of either vehicle or Compound 2 QD at 50 and 100 mg/kg/day for 72 hours or 5, 16, 50, and 100 mg/kg/day for 28 days. At study termination, plasma was collected via cardiac puncture and liver tissue was collected and preserved in 10% neutral buffered formalin.
Liver polymer staining was assessed as the % area of liver tissue that stains positively by monoclonal antibody 2C1 immunohistochemistry.
High bind EIA/RIA microplates (Costar, 3590) were coated with 100 μL mouse monoclonal anti-human AAT polymer antibody (Hycult Biotech, HM2289, clone 2C1) diluted to 2 μg/mL in carbonate-bicarbonate buffer (0.2M, pH 9.4) and incubated for 90 minutes at 37° C. (while shaking) or alternatively overnight (up to 72 hours) at 4° C. (still). […] Following color development, 100 μL 1N sulfuric acid was added to stop the reaction and absorbance was immediately measured at 450 nm and 650 nm for background subtraction with a microplate reader (Molecular Devices, SpectraMax M3). […]
On the technique in general: An ELISA detects its analyte on a solid surface through an enzyme-linked reagent.

The structures appear in SMILES notation.

T1 sequence (P01009 25-418 V237A/E366K): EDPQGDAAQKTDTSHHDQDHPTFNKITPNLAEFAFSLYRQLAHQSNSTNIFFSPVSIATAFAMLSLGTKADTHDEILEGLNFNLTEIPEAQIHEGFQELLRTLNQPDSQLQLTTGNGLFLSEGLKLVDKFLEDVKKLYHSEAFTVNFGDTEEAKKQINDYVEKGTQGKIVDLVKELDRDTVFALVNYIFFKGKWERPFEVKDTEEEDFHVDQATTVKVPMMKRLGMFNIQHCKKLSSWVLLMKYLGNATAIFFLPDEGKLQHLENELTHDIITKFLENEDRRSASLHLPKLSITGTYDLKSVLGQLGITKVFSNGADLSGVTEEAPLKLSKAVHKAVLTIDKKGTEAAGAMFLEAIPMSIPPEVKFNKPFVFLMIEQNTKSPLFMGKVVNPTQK

Consider `O=C(O)c1ccc(-c2c(C3CCOCC3)n(-c3ccc(F)c(F)c3)c3cc4cn[nH]c4cc23)cc1` [Compound 2], for which the “AAT plasma polymer levels” value runs as follows: (QD 5, 16, 50 and 100 mg/kg/day PO for 28 days, vs vehicle (FIG. 5B)) “dose response decrease”; (QD 50 and 100 mg/kg/day PO for 72 hours, vs vehicle (FIG. 5A)) “dose response decrease”.
